According to PubChem BioAssay (NCI):
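Test compounds were applied to cells in 96-well plates for 48 hours at 5 doses. GI50 marks 50% less growth. TGI: total growth inhibition.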

What was measured:
Experiment in all cases: NCI anticancer screen, dose series, 48 h
[1] = test system: 786-0 renal
[2] = test system: A498 renal
[3] = test system: A549 NSCLC
[4] = test system: ACHN renal
[5] = test system: BT-549 breast
[6] = test system: CAKI-1 renal
[7] = test system: CCRF-CEM leukemia
[8] = test system: COLO 205 colon
[9] = test system: DU-145 prostate
[10] = test system: EKVX NSCLC
[11] = test system: HCC-2998 colon
[12] = test system: HCT-116 colon
[13] = test system: HCT-15 colon
[14] = test system: HL-60(TB) leukemia
[15] = test system: HOP-62 NSCLC
[16] = test system: HOP-92 NSCLC
[17] = test system: HS 578T breast
[18] = test system: HT29 colon
[19] = test system: IGROV1 ovarian
[20] = test system: K-562 leukemia
[21] = test system: KM12 colon
[22] = test system: LOX IMVI melanoma
[23] = test system: M14 melanoma
[24] = test system: MALME-3M melanoma
[25] = test system: MCF7 breast
[26] = test system: MDA-MB-231 breast
[27] = test system: MDA-MB-435
[28] = test system: MOLT-4 leukemia
[29] = test system: NCI-H226 lung
[30] = test system: NCI-H23 lung
[31] = test system: NCI-H460 lung
[32] = test system: NCI-H522 lung
[33] = test system: NCI/ADR-RES ovarian
[34] = test system: OVCAR-3 ovarian
[35] = test system: OVCAR-4 ovarian
[36] = test system: OVCAR-5 ovarian
[37] = test system: OVCAR-8 ovarian
[38] = test system: PC-3 prostate
[39] = test system: RPMI-8226 leukemia
[40] = test system: RXF 393 renal
[41] = test system: SF-268 CNS
[42] = test system: SF-295 CNS
[43] = test system: SF-539 CNS
[44] = test system: SK-MEL-2 melanoma
[45] = test system: SK-MEL-28 melanoma
[46] = test system: SK-MEL-5 melanoma
[47] = test system: SK-OV-3 ovarian
[48] = test system: SN12C renal
[49] = test system: SNB-19 CNS
[50] = test system: SNB-75 CNS
[51] = test system: SR leukemia
[52] = test system: SW-620 colon
[53] = test system: T-47D breast
[54] = test system: TK-10 renal
[55] = test system: U251 CNS
[56] = test system: UACC-257 melanoma
[57] = test system: UACC-62 melanoma
[58] = test system: UO-31 renal

## COc1cc(C(=O)c2c(-c3ccccc3)oc3c(OC)cccc23)cc(OC)c1O
[1]
  GI50: 630 nM
  TGI: 14300 nM
[2]
  GI50: 378 nM
  TGI: 3530 nM
[3]
  GI50: 751 nM
  TGI: > 100000 nM
[4]
  GI50: 664 nM
  TGI: > 100000 nM
[5]
  GI50: 1190 nM
  TGI: 7310 nM
[6]
  GI50: 404 nM
  TGI: 26700 nM
[7]
  GI50: 414 nM
  TGI: > 100000 nM
[8]
  GI50: 2050 nM
  TGI: 5230 nM
[9]
  GI50: 554 nM
  TGI: > 100000 nM
[10]
  GI50: 876 nM
  TGI: > 100000 nM
[11]
  GI50: 1960 nM
  TGI: > 100000 nM
[12]
  GI50: 563 nM
  TGI: > 100000 nM
[13]
  GI50: 455 nM
  TGI: > 100000 nM
[14]
  GI50: 284 nM
  TGI: 1020 nM
[15]
  GI50: 641 nM
  TGI: > 100000 nM
[16]
  GI50: 276 nM
  TGI: 2250 nM
[17]
  GI50: 405 nM
[18]
  GI50: 3150 nM
  TGI: > 33700 nM
[19]
  GI50: 654 nM
  TGI: > 100000 nM
[20]
  GI50: 328 nM
  TGI: > 100000 nM
[21]
  GI50: 450 nM
  TGI: > 51200 nM
[22]
  GI50: 608 nM
  TGI: > 100000 nM
[23]
  GI50: 351 nM
  TGI: > 100000 nM
[24]
  GI50: 509 nM
  TGI: > 100000 nM
[25]
  GI50: 351 nM
  TGI: > 100000 nM
[26]
  GI50: 1500 nM
  TGI: 16100 nM
[27]
  GI50: 162 nM
  TGI: 459 nM
[28]
  GI50: 605 nM
  TGI: > 100000 nM
[29]
  GI50: 3100 nM
  TGI: > 100000 nM
[30]
  GI50: 864 nM
  TGI: > 100000 nM
[31]
  GI50: 401 nM
  TGI: > 22100 nM
[32]
  GI50: 269 nM
  TGI: 5180 nM
[33]
  GI50: 454 nM
  TGI: > 100000 nM
[34]
  GI50: 302 nM
  TGI: 1660 nM
[35]
  GI50: 2820 nM
  TGI: > 100000 nM
[36]
  GI50: 3220 nM
  TGI: > 100000 nM
[37]
  GI50: 631 nM
  TGI: > 100000 nM
[38]
  GI50: 450 nM
  TGI: > 37200 nM
[39]
  GI50: 403 nM
  TGI: 5750 nM
[40]
  GI50: 313 nM
  TGI: 2000 nM
[41]
  GI50: 1040 nM
  TGI: > 100000 nM
[42]
  GI50: 569 nM
  TGI: > 21500 nM
[43]
  GI50: 311 nM
  TGI: 2640 nM
[44]
  GI50: 2280 nM
  TGI: > 100000 nM
[45]
  GI50: 4090 nM
  TGI: > 100000 nM
[46]
  GI50: 651 nM
  TGI: 8620 nM
[47]
  GI50: 765 nM
  TGI: > 100000 nM
[48]
  GI50: 1460 nM
  TGI: > 100000 nM
[49]
  GI50: 1760 nM
  TGI: > 100000 nM
[50]
  GI50: 184 nM
  TGI: 605 nM
[51]
  GI50: 339 nM
  TGI: 53000 nM
[52]
  GI50: 454 nM
  TGI: > 100000 nM
[53]
  GI50: 1200 nM
  TGI: > 100000 nM
[54]
  GI50: 15000 nM
  TGI: > 81900 nM
[55]
  GI50: 507 nM
  TGI: > 100000 nM
[56]
  GI50: 63500 nM
  TGI: > 100000 nM
[57]
  GI50: 583 nM
  TGI: > 100000 nM
[58]
  GI50: 648 nM
  TGI: > 100000 nM
